Like-named read-outs stand apart in the source and are kept apart here.
Legend:
[1] = test system: VEGFR2 and FGFR1; assay: Selection of compounds that selectively inhibit both VEGFR2 and FGFR1 (average relative IC50); assay type: biochemical; settings: average of VEGFR2 and FGFR1 relative IC50
[2] = target: T1, VEGFR2 (Homo sapiens, UniProt P35968); settings: relative IC50: reported IC50 toward VEGFR2 divided by next lowest reported IC50 to any gene target
[3] = target: T2, FGFR1 (Homo sapiens, UniProt P11362); settings: relative IC50: reported IC50 toward FGFR1 divided by next lowest reported IC50 to any gene target
T2 sequence (P11362 22-822, species assumed): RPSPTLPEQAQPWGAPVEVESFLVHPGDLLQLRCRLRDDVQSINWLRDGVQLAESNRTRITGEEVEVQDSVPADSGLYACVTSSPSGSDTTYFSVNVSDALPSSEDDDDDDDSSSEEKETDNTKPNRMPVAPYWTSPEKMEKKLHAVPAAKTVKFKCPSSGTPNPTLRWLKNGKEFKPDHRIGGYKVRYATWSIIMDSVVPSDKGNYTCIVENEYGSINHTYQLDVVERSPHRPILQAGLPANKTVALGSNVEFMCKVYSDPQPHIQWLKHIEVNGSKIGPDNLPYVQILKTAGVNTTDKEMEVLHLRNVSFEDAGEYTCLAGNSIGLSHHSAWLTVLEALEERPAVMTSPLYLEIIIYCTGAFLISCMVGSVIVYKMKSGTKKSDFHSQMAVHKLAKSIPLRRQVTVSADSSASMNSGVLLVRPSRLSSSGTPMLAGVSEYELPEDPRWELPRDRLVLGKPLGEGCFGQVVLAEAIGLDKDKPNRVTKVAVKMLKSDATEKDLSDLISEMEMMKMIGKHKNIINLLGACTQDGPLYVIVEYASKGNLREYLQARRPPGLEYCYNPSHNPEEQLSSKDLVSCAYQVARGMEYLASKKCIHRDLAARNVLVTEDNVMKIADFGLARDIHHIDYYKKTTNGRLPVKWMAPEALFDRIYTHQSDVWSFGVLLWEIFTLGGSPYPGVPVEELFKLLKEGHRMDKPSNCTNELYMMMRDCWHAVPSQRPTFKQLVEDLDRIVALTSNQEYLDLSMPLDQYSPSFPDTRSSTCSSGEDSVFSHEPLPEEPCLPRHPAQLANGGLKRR

[4] = target: T2, FGFR1; settings: cited from earlier work
[5] = test system: any gene target; settings: cited from earlier work
[6] = test system: Zmpste24−/− mice; assay: Mouse model of progeria: body fat (Echo MRI), lean muscle, body weight, intrascapular brown fat; assay type: in vivo; settings: for Body fat (Echo MRI) vs vehicle / Intrascapular brown fat mass (percent of body weight) vs vehicle: Brivanib alaninate 50, SU5402 25, Cediranib maleate 5, Regorafenib 10, infigratinib 5 mg/kg
Method: Zmpste24 mice, a progeria model mouse line, were dosed with either 50 mg/kg Brivanib alaninate for 56 days, 5 days on, 2 days off (QD5), or vehicle alone. The dose was administered via oral gavage as a suspension of 18% (w/v) PEG400 2% (w/v) Tween-80 in water . The vehicle alone was 18% (w/v) PEG400 2% (w/v) Tween-80 in water.
The body fat of the mice was measured by an Echo MRI throughout the treatment.
Samples of intrascapular brown adipose tissue from 15 week old mice treated with Brivanib Alaninate or vehicle for 56 days underwent Hematoxylin and Eosin (H&E) staining.
Zmpste24−/− mice, a progeria model mouse line, were dosed with either 25 mg/kg SU5402 for 56 days, 5 days on, 2 days off (QD5) or vehicle alone. The dose was administered via oral gavage as a suspension of 5% (w/v) DMSO 9% (w/v) PEG400 1% (w/v) Tween-80 in saline. The vehicle alone was 5% (w/v) DMSO 9% (w/v) PEG400 1% (w/v) Tween-80 in saline.
The body fat of the mice was measured by an Echo […]. Lean muscle and body weight were also measured.
The dose was administered via oral gavage as a suspension of 18% (w/v) PEG400 2% (w/v) Tween-80 in water . The vehicle alone was 18% (w/v) PEG400 2% (w/v) Tween-80 in water.
The body fat of the mice was measured by an Echo MRI. […] There was also no alteration of intrascapular brown adipose tissue mass (FIG. 5D).
The dose was administered via oral gavage as a suspension of 18% (w/v) PEG400 2% (w/v) Tween-80 in water. The vehicle alone was 18% (w/v) PEG400 2% (w/v) Tween-80 in water.
The body fat of the mice was measured by an Echo MM. […] There was also no alteration of intrascapular brown adipose tissue mass (FIG. 6D).
The body fat of the mice was measure by an Echo MRI. […] There was also no alteration of intrascapular brown adipose tissue mass (FIG. 7D). […]

[7] = target: T3, EPHX2 (Homo sapiens, UniProt P34913); settings: cited from earlier work
T3 sequence (P34913 1-555): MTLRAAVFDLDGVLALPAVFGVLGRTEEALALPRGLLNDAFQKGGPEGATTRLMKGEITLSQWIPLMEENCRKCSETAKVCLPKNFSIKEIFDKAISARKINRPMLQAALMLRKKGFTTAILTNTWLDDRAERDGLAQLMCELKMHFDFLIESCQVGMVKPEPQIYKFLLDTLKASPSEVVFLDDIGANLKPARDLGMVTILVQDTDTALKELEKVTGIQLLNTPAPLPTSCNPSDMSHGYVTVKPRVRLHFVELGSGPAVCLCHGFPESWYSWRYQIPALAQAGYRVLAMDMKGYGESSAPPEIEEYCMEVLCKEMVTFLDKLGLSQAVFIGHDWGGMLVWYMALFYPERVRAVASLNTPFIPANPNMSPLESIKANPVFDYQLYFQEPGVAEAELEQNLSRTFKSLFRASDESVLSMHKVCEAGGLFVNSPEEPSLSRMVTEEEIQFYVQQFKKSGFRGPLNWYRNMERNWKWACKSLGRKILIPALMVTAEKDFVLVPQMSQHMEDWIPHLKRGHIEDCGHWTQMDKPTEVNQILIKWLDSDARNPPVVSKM

[8] = test system: Zmpste24−/− mice; assay: Mouse model of progeria: bone loss score of vertebrae and femur (H&E sections); assay type: in vivo; settings: 50 mg/kg oral QD5 56 days, 15 weeks of age
Method: Zmpste24−/− mice were dosed with either 50 mg/kg Brivanib Alaninate for 56 days, 5 days on, 2 days off (QD5), or vehicle alone. The dose was administered via oral gavage as a suspension of 18% (w/v) PEG400 2% Tween-80 (w/v) in water . The vehicle alone was 18% (w/v) PEG400 2% (w/v) Tween-80 in water.
The mice were assessed for bone loss in the vertebrae and femur at 15 weeks of age. Bone loss was scored by a pathologist using H&E stained sections of vertebrae or femur samples by the following criteria:
The mice that are treated with a selective VEGFR2 inhibitor and a selective FGFR1 inhibitor are also assessed for bone loss in the vertebrae and femur. Bone loss is scored by a pathologist using the criteria in Example 2.

[9] = test system: C57BL6 mice fed a high fat, high cholesterol, high fructose diet; assay: Mouse model of diet induced fatty liver disease; assay type: in vivo; settings: 28 days
[10] = target: T1, VEGFR2; settings: read-out: VEGFR2 IC50_μM; reported IC50 to VEGFR2; cited from earlier work
[11] = Table 2, list of selective inhibitors of FGFR1, read-out: FGFR1 IC50_μM: reported IC50 to FGFR1
[12] = Table 2, lowest reported IC50 to any gene target, read-out: Min IC50_μM
[13] = lowest reported IC50 to any gene target, read-out: min IC50
[14] = reported IC50 to FGFR1, read-out: FGFR1 IC50_μM
[15] = oral gavage QD5 for 56 days, SU5402 25, Cediranib maleate 5, Regorafenib 10, infigratinib 5 mg/kg
[16] = 50 mg/kg i.p. once a day, relative to standard diet
[17] = lowest reported IC50 to any gene target, read-out: Min IC50_μM

T1 sequence (P35968 20-1356, species assumed): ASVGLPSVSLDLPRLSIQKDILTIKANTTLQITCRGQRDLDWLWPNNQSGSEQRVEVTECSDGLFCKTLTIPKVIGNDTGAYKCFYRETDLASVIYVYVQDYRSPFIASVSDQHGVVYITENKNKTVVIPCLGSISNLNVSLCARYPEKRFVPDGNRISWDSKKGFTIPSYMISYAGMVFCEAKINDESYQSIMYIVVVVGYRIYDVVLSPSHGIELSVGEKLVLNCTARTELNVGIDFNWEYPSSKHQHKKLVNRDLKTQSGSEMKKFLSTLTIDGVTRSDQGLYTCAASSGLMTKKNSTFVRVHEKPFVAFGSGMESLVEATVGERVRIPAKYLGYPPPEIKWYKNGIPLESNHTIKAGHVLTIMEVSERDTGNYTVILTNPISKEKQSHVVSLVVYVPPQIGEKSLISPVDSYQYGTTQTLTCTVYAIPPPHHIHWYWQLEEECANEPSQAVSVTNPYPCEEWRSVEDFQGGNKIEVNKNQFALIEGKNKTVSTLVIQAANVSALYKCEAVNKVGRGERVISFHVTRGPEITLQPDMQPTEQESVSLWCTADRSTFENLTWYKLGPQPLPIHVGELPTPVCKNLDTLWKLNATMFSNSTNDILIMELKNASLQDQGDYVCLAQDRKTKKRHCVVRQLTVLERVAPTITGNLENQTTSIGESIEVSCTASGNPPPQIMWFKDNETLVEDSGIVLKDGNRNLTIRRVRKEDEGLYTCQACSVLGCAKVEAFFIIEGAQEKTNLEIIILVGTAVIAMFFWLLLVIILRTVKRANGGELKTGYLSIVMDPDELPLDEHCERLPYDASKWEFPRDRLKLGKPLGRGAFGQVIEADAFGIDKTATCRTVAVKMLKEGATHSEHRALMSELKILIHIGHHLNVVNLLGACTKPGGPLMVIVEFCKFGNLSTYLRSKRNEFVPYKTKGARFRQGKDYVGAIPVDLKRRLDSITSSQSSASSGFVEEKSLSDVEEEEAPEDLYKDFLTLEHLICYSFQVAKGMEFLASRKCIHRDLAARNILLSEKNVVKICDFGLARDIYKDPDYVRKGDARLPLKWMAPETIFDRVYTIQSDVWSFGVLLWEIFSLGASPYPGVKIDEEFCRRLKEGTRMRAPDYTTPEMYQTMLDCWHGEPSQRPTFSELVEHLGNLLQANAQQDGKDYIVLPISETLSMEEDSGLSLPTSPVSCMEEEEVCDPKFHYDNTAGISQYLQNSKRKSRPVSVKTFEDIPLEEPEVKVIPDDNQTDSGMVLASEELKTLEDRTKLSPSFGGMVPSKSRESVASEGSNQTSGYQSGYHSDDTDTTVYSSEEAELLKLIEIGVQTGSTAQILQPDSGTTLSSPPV

| SMILES | avg rIC50 [1] | VEGFR2, rIC50 [2] | FGFR1, rIC50 [3] | IC50 [4, 11] [nM] | IC50 [5, 12] [nM] | IC50 [5, 13] [nM] | other results |
| --- | --- | --- | --- | --- | --- | --- | --- |
| NS(=O)(=O)c1ccc2c(c1)/C(=C/c1[nH]c3c(c1CCC(=O)O)CCCC3)C(=O)N2 [compound 5329165, Indolin-2-one deriv. 9c, reference compound] | 1.7 | 3.0 | 0.3 | 200 | 600 | 200 |  |
| CONC(=O)c1cc(Nc2ncnn3cc(-c4nnc(C)o4)c(C(C)C)c23)c(F)cc1F [compound 10478569, 2,4-Difluoro-5-[5-isopropyl-6-(5-methyl-[1,3,4]oxadiazol-2-yl)-pyrrolo[2,1-f][1,2,4]triazin-4-ylamino]-N-methoxy-benzamide, reference compound] | 1.1 | 1.2 | 1.0 |  |  |  | IC50 [4, 14]: 6.5 nM |
| CNC(=O)c1cc(Oc2ccc(NC(=O)Nc3ccc(Cl)c(C(F)(F)F)c3)c(F)c2)ccn1 [compound 11167602, Regorafenib] | 5.7 | 8.4 | 3.0 |  |  | 1 | Body fat (Echo MRI) vs vehicle ([6]; oral gavage QD5 for 56 days): did not show an increase; Intrascapular brown fat mass (percent of body weight) vs vehicle ([6]; oral gavage QD5 for 56 days): no alteration; Body weight vs vehicle [6, 15]: did not show an increase; Lean muscle vs vehicle [6, 15]: did not show an increase; IC50 [7]: < 3 nM |
| Cc1cc2c(F)c(Oc3ncnn4cc(OC[C@@H](C)OC(=O)[C@@H](C)N)c(C)c34)ccc2[nH]1 [compound 11234052, Brivanib alaninate (Brivanib)] | 1.0 | 0.9 | 1.1 |  |  | 25 | Lipid content in intrascapular brown adipose tissue (H&E) ([6]; 15 week old mice, 50 mg/kg for 56 days): increased lipid content; Body fat (Echo MRI) vs vehicle ([6]; oral gavage QD5 for 56 days): increase in body mass starting at 6 weeks of age; Intrascapular brown fat mass (percent of body weight) vs vehicle ([6]; oral gavage QD5 for 56 days): made up for more of the percent of the body weight; Bone loss score, femur: most severe score in the group [8]: 0.5 (0.5 = less than 1%); Bone loss score, vertebrae: most severe score in the group [8]: 4 (4 = 51-75%); Bone loss scores vs vehicle [8]: lower bone loss scores; Share of mice with the most severe score, femur [8]: about 30%; Share of mice with the most severe score, vertebrae [8]: about 15%; Liver lipid content (H&E) vs vehicle ([9]; 25 mg/kg i.p. once a day): decreased liver lipid content; Size of adipocytes in the epididymal fat pad vs vehicle ([9]; 25 mg/kg i.p. once a day): decreased the size of adipocytes; Thickness of the abdominal subcutaneous adipose ([9]; 25 mg/kg i.p. once a day): increased in the thickness; Increase in blood urea nitrogen vs fatty liver diet + vehicle [9, 16]: less of an increase; Increase in body weight vs fatty liver diet + vehicle [9, 16]: less of an increase; Increase in liver mass vs fatty liver diet + vehicle [9, 16]: less of an increase; Increase in serum cholesterol vs fatty liver diet + vehicle [9, 16]: less of an increase; Increase in serum triglycerides vs fatty liver diet + vehicle [9, 16]: less of an increase; IC50 [10]: 25 nM; IC50 ([5]; next lowest IC50 value to any gene target, read-out: Min IC50_μM): 28 nM |
| CONC(=O)c1cc(Nc2ncnn3cc(-c4nnco4)c(C(C)C)c23)c(F)cc1F [compound 11464544, 2,4-Difluoro-5-(5-isopropyl-6-[1,3,4]oxadiazol-2-yl-pyrrolo[2,1-f][1,2,4]triazin-4-ylamino)-N-methoxy-benzamide, reference compound] | 1.2 | 1.4 | 1.0 |  |  | 54 | IC50 [4, 14]: 54 nM; IC50 [5, 17]: 54 nM |
| CONC(=O)c1cc(Nc2ncnn3cc(-c4nnc(C(F)(F)F)o4)c(C(C)C)c23)c(F)cc1F [compound 11488852, 2,4-Difluoro-5-[5-isopropyl-6-(5-trifluoromethyl-[1,3,4]oxadiazol-2-yl)-pyrrolo[2,1-f][1,2,4]triazin-4-ylamino]-N-methoxy-benzamide, reference compound] | 1.0 | 1.1 | 1.0 |  |  | 33 | IC50 ([4]; read-out: FGFR1 IC50_μM, reported IC50 to FGFR1): 33 nM; IC50 [5, 17]: 33 nM |
| C=CC(=O)N1CC[C@H](n2cc(-c3cc4cc(C)cc(OC)c4s3)c3c(N)ncnc32)C1 [compound 138617501] |  |  |  | 0.3 | 0.8 |  |  |
| O=c1[nH]c(=O)n(-c2ccc(Oc3ccccc3)cc2)c(=O)n1-c1ccccc1 [compound 139434105] |  |  |  | 890 | 1300 |  |  |

Reference: patent publication US20240156825A1, “USE OF SELECTIVE VEGFR2 AND FGFR1 INHIBITORS” (Fountain Therapeutics Inc., priority 2022, published 2024)
